Test results taken from patent US9539303B2, “Treatment of Ras-expressing tumors” (Celgene Corporation, priority 2006, dated 2017).
Values joined by “and” are separate entries in the source; they are usually repeats but may differ in a detail not shown here. Identical values can stand only once.

What was measured:
[1] = Animal weight and drug toxicity, PANC-1 study
Text: (§1) Model Information—Female nude mice (nu/nu) between 5 and 6 weeks of age weighing approximately 20 grams were obtained from Harlan, Inc. (Madison, Wis.). PANC-1, obtained from the ATCC, is a pancreas tumor cell line originating from a person^(1-2). BxPC-3, obtained from the American Type Culture Collection (ATCC), is a pancreas tumor cell line originating from a person^(3-4). PANC-1 Study: Animals were implanted subcutaneously (SC) by trocar with fragments of PANC-1 harvested from SC growing tumors in nude mice hosts. When tumors grew to approximately 135 cubic millimeters (mm^3) in size (17 days following implantation, animals were pair-matched by tumor size into treatment and control groups; each treatment group contained nine mice. BxPC-3 Study: Animals were implanted subcutaneously (SC) by trocar with fragments of BxPC-3 harvested from SC growing tumors in nude mice hosts. When tumors grew to approximately 85 cubic millimeters (mm^3) in size (19 days following implantation), animals were pair-matched by tumor size into treatment and control groups; each treatment group contained nine mice. Animals in both studies were ear-tagged and followed individually throughout the experiment.
(§2) Study Design and Dosing—Initial doses were administered on Day 1 following pair-matching; both experiments were carried out as tumor growth inhibition (TGI) studies. Animals were dosed intravenously (IV) via tail vein with FK228 once every four days for three treatments (Q4Dx3) or by intraperitoneal (IP) injection with gemcitabine once every three days for four treatments (Q3Dx4), either alone or in combination, at the doses listed below (Table 1). To serve as a negative control, FK228 vehicle (2% ethanol, 8% propylene glycol, 90% 0.9% saline) was injected on a Q4Dx3 schedule.
(§3) Animal Weights—Individual and group mean weights±SD and percent weight change through Day 25 (PANC-1) or Day 29 (BxPC-3) were recorded twice weekly until study completion beginning Day 1. Final group mean weights±SD and group nadir values are reported; weight data from individual animals experiencing technical or drug-related deaths was censored from final group calculations.
(§4) Moribundity/Mortality—Animals were observed twice weekly for general moribundity and daily for mortality. Animal deaths were assessed as drug-related or technical based on factors including gross observation and weight loss; reported animal death information includes type, number, and day of death for each group.

[2] = test system: acetylated histone 4; assay: Tissue biomarker immunoblotting of PANC-1 xenograft tumors: acetylated histone 4; type: in vivo; conditions: PANC-1 tumors at study completion; FK228 5 mg/kg Q4Dx3, gemcitabine 80 mg/kg Q3Dx4, or both
Protocol: (§5) Specimen Collection: […] Tumor xenograft tissue and serum specimens were obtained from in vivo studies performed by the Preclinical Research Laboratory at the completion of the experiments. […] Serum was obtained from whole blood and stored frozen at -70° C. Tissue Biomarkers: Tumor levels of acetylated histone-4, histone-4, […] were quantified by immunoblotting as described. Briefly, frozen tissue was pulverized under liquid nitrogen and homogenized in hypotonic lysis buffer. Small aliquots of the extracts were used for analysis of protein concentration by micro-BCA assay with bovine serum albumin as a protein standard. An equal amount of extracts containing about 20-50 μg protein was electrophoresed in SDS polyacrylamide gels. Proteins were transferred to ImmunoBlot PVDF membrane and were probed with appropriate primary and secondary antibodies. The chemiluminescence signal was captured by autoradiography, quantified by densitometry and expressed as a ratio of actin in each sample lane. For each biomarker, means and standard errors were calculated in each treatment group. […] Following quantitative analysis of biomarker levels in each sample, the results were normalized for b-actin and expressed as percentages of untreated controls. […]

[3] = test system: transformed (H, K, N-Ras and the rat Her-2/NeuT) NIH-3T3 cells; assay: 4-day proliferation assay, transformed NIH-3T3 cell lines; type: cell-based, mouse; conditions: 2 nM romidepsin
Protocol: A series of transformed NIH-3T3 cell likes were generated and a proliferation assay was performed in the presence of 2, 3, or 4 nM romidepsin. FIG. 23 illustrates the transformed morphology of the cells. FIG. 24 presents graphs of cell proliferation.

[4] = test system: PANC-1 human pancreatic tumor xenograft; assay: PANC-1 human pancreatic tumor xenograft tumor growth inhibition study (Example 3); type: in vivo, female nude mice (nu/nu); conditions: for % TGI / Final tumor volume mean ± SEM: Day 25
Text: (Madison, Wis.). […] Tumor measurements were converted to cubic millimeter tumor volume using the formula^(5): […] TGI values for each treatment group are reported at study completion; these calculations are based on the final study day. […] Individual mice lacking palpable tumors were classified as undergoing complete regression (CR). Animals experiencing partial or complete tumor regressions were censored from TGI calculations. However, data from these animals was included in statistical analysis calculations. In addition, weight data from these animals was included in daily and final group calculations. Tumor Necrosis-Degree of tumor necrosis was rated at each tumor measurement using the following arbitrary index: […]

[5] = test system: acetylated histone 3; assay: Tissue biomarker immunoblotting of PANC-1 xenograft tumors: acetylated histone 3; type: in vivo; conditions: PANC-1 tumors at study completion; FK228 5 mg/kg Q4Dx3, gemcitabine 80 mg/kg Q3Dx4, or both
Protocol: as §5

[6] = test system: Panc-1 human pancreas tumors (oncogenic K-ras); assay: Panc-1 mouse xenograft model, tumor growth (Example 1); type: in vivo, female nude mice; conditions: Panc-1 xenograft; FK228 IV Q4Dx3 and/or gemcitabine IP Q3Dx4; vs vehicle control
Protocol: In this study, female nude mice were implanted subcutaneously (SC) by trocar with Panc-1 tumor fragments harvested from SC growing tumors in nude mice hosts. […] The day of treatment initiation was specified as Day 1. Vehicle control and FK228 were administered intravenously on a […] schedule (Days 1, 5, and 9). Gemcitabine was administered by an intraperitoneal injection on a […] schedule (Days 1, 4, 7, 10). Tumors were measured by Vernier calipers twice weekly.

[7] = Animal weight and drug toxicity, BxPC-3 study
Text: as §1, §2, §3, §4

[8] = test system: c-Myc; assay: Tissue biomarker immunoblotting of PANC-1 xenograft tumors: c-Myc; type: in vivo; conditions: PANC-1 tumors at study completion; FK228 5 mg/kg Q4Dx3, gemcitabine 80 mg/kg Q3Dx4, or both; actin-normalized vs control
Protocol: as §5

[9] = FK228 2.5 mg/kg IV Q4Dx3, 2.5 mg/kg
[10] = FK228 5 mg/kg IV Q4Dx3, 5 mg/kg
[11] = PANC-1 study, FK228 2.5 mg/kg IV Q4Dx3
[12] = PANC-1 study, FK228 2.5 mg/kg IV Q4Dx3, 2.5 mg/kg
[13] = PANC-1 study, FK228 5 mg/kg IV Q4Dx3
[14] = PANC-1 study, FK228 5 mg/kg IV Q4Dx3, 5 mg/kg

## C/C=C1\NC(=O)[C@H]2CSSCC/C=C/[C@H](CC(=O)N[C@H](C(C)C)C(=O)N2)OC(=O)[C@H](C(C)C)NC1=O [FK228, romidepsin]
[1]; Day 25, FK228 2.5 mg/kg IV Q4Dx3
  Final weight data % change: +8%
[1]; Day 25, FK228 2.5 mg/kg IV Q4Dx3, 2.5 mg/kg
  Final weight data mean ± SD: 23±2 G
[1]; Day 25, FK228 5 mg/kg IV Q4Dx3
  Final weight data % change: +9%
[1]; Day 25, FK228 5 mg/kg IV Q4Dx3, 5 mg/kg
  Final weight data mean ± SD: 25±2 G
[1]; FK228 2.5 mg/kg IV Q4Dx3
  Weight nadir % change: −9%
  Weight nadir day: 11
[1]; [9]
  Drug deaths total: 0/9 and 0
[1]; FK228 5 mg/kg IV Q4Dx3
  Weight nadir % change: −12%
  Weight nadir day: 11
[1]; [10]
  Drug deaths total: 0/9 and 0
[2]
  levels of acetylated histone 4 vs control: over 2 fold
[3]
  inhibition of proliferation, transformed vs untransformed cells: selectively inhibited
[4]; [11]
  % TGI: 26%
  Activity according to NCI standards: inactive
  Tumor necrosis: 1/9 animals reported slight tumor necrosis, 1/9 reported mild tumor necrosis, 2/9 reported moderate necrosis, and 1/9 reported severe necrosis
[4]; [12]
  Final tumor volume mean ± SEM: 1688±290 MM^3
  #PR/CR: 0/9 and 0/0
[4]; [13]
  % TGI: 26%
  Activity according to NCI standards: inactive
  Tumor necrosis: 2/9 animals reported slight tumor necrosis, and 1/9 reported moderate necrosis
[4]; [14]
  Final tumor volume mean ± SEM: 1690±290 MM^3 and 1690 ± 331 MM^3
  #PR/CR: 0/9 and 0/0
[4]; PANC-1 study, at the evaluated doses and schedules
  calculated TGI values: less than 58%
[4]; ras-transformed PANC-1 model, all evaluated doses
  antitumor activity (overall conclusion): some activity
[5]
  acetylation of histone 3: not affected
[6]
  tumor growth inhibition: 26%
[7]; Day 29, FK228 2.5 mg/kg IV Q4Dx3
  Final weight data % change: +10%
[7]; Day 29, FK228 2.5 mg/kg IV Q4Dx3, 2.5 mg/kg
  Final weight data mean ± SD: 25±2 G
[7]; Day 29, FK228 5 mg/kg IV Q4Dx3
  Final weight data % change: +7%
[7]; Day 29, FK228 5 mg/kg IV Q4Dx3, 5 mg/kg
  Final weight data mean ± SD: 24±1 G
[7]; FK228 2.5 mg/kg IV Q4Dx3
  Weight nadir % change: −5%
  Weight nadir day: 11
[7]; [9]
  Drug deaths total: 0/9 and 0
[7]; FK228 5 mg/kg IV Q4Dx3
  Weight nadir % change: −15%
  Weight nadir day: 11
[7]; [10]
  Drug deaths total: 0/9 and 0
[8]
  extent of inhibition of c-Myc expression: 50%
